Converted amounts (≈) assume the structure as drawn. Where a SMILES comes first, the peptide text is derived from it. [ ]: non-standard residue; d: D form. NMeF = CN[C@@H](Cc1ccccc1)C(=O)O; NMeA = CN[C@@H](C)C(=O)O; dNMeA = CN[C@H](C)C(=O)O; Sar = CNCC(=O)O
Key:
Assay type in all cases: physicochemical
[1] = Decadiene/water partition coefficient, logD of compound at pH 7.4 by HPLC analysis
[2] = Solubility of the compound by high-throughput equilibrium solubility assay
[3] = Octanol/water partition coefficient, logD of compound at pH 7.4 by HPLC analysis

SMILES | logD hydrocarbon water [1] | solubility thermodynamic [2] [µM] | logD [3]
CC(C)C[C@@H]1NC(=O)[C@H]([C@@H](C)O)N(C)C(=O)[C@H]2CCCN2C(=O)[C@H](CC(C)C)NC(=O)[C@H]([C@@H](C)O)N(C)C(=O)[C@H](CC(C)C)NC(=O)[C@H](C)N(C)C(=O)[C@H]2CCCN2C(=O)[C@H](CC(C)C)NC(=O)[C@H]([C@@H](C)O)N(C)C1=O | 0.4 | 827 (≈ 891 µg/mL) | –
CC(C)C[C@@H]1NC(=O)[C@H](C)N(C)C(=O)[C@H]2CCCN2C(=O)[C@H](CC(C)C)NC(=O)[C@H](C)N(C)C(=O)[C@H]([C@@H](C)O)NC(=O)[C@H](C)N(C)C(=O)[C@H]2CCCN2C(=O)[C@H](CC(C)C)NC(=O)[C@H](C)N(C)C1=O | 0.4 | > 1000 | 2.7
CC(C)C[C@@H]1NC(=O)[C@H](C)N(C)C(=O)[C@H]2CCCN2C(=O)[C@H](CC(C)C)NC(=O)[C@H](C)N(C)C(=O)[C@H](CC(C)C)NC(=O)[C@H]([C@@H](C)O)N(C)C(=O)[C@H]2CCCN2C(=O)[C@H](CC(C)C)NC(=O)[C@H]([C@@H](C)O)N(C)C1=O | 1.2 | > 1000 | –
CC(C)C[C@@H]1NC(=O)[C@H]([C@@H](C)O)N(C)C(=O)[C@H]2CCCN2C(=O)[C@H](CC(C)C)NC(=O)[C@H](C)N(C)C(=O)[C@H](CC(C)C)NC(=O)[C@H](Cc2ccccc2)N(C)C(=O)[C@H]2CCCN2C(=O)[C@H](CC(C)C)NC(=O)[C@H](C)N(C)C1=O | 3.7 | 65 (≈ 71.1 µg/mL) | 5.7
CC(C)C[C@@H]1NC(=O)[C@H](C)N(C)C(=O)[C@H](CC(C)C)NC(=O)[C@H]2CCCN2C(=O)[C@@H]2CCCN2C(=O)[C@H](CC(C)C)NC(=O)[C@H](C)N(C)C(=O)[C@H](CC(C)C)NC(=O)[C@H](C(C)C)N(C)C(=O)[C@@H](C)N(C)C1=O | 3.1 | 92 (≈ 93.4 µg/mL) | 5.1
CC(C)C[C@@H]1NC(=O)[C@H](C)N(C)C(=O)[C@H]2CCCN2C(=O)[C@H](CC(C)C)NC(=O)[C@H](C)N(C)C(=O)[C@H](CC(C)C)NC(=O)[C@H](C)N(C)C(=O)[C@H]2CCCN2C(=O)[C@H]([C@@H](C)O)NC(=O)[C@H](C)N(C)C1=O | 0.1 | > 1000 | 2.6
CC(C)C[C@@H]1NC(=O)[C@H](Cc2ccccc2)N(C)C(=O)[C@H]2CCCN2C(=O)[C@H](CC(C)C)NC(=O)[C@H](C)N(C)C(=O)[C@H]([C@@H](C)O)NC(=O)[C@H](Cc2ccccc2)N(C)C(=O)[C@H]2CCCN2C(=O)[C@H](CC(C)C)NC(=O)[C@H](C)N(C)C1=O | 4 | 15 (≈ 16.9 µg/mL) | 5.4
CC(C)C[C@@H]1NC(=O)[C@H](C(C)C)N(C)C(=O)[C@H]2CCCN2C(=O)[C@H](CC(C)C)NC(=O)[C@H](C)N(C)C(=O)[C@H](CC(C)C)NC(=O)[C@H](C(C)C)N(C)C(=O)[C@H]2CCCN2C(=O)[C@H](CC(C)C)NC(=O)[C@H](C)N(C)C1=O | 3.8 | 57 (≈ 59.5 µg/mL) | 5.1
CC(C)C[C@@H]1NC(=O)[C@H]([C@@H](C)O)N(C)C(=O)[C@@H]2C[C@@H](O)CN2C(=O)[C@H](CC(C)C)NC(=O)[C@H](C)N(C)C(=O)[C@H](CC(C)C)NC(=O)[C@H](Cc2ccccc2)N(C)C(=O)[C@@H]2C[C@@H](O)CN2C(=O)[C@H](CC(C)C)NC(=O)[C@H](C)N(C)C1=O | -0.6 | 320 (≈ 360 µg/mL) | 4.7
CC(C)C[C@@H]1NC(=O)[C@H](C)N(C)C(=O)[C@H]2CCCN2C(=O)[C@H](CC(C)C)NC(=O)[C@H](C)N(C)C(=O)[C@H](CC(C)C)NC(=O)[C@H](C)N(C)C(=O)[C@H]2CCCN2C(=O)[C@H](CC(C)C)NC(=O)[C@H]([C@@H](C)O)N(C)C1=O | 1.7 | 763 (≈ 776 µg/mL) | –
CC(C)C[C@@H]1NC(=O)[C@H]([C@@H](C)O)N(C)C(=O)[C@H]2CCCN2C(=O)[C@H](CC(C)C)NC(=O)[C@H](C)N(C)C(=O)[C@H](CC(C)C)NC(=O)[C@H]([C@@H](C)O)N(C)C(=O)[C@H]2CCCN2C(=O)[C@H](CC(C)C)NC(=O)[C@H](C)N(C)C1=O | 1.2 | 884 (≈ 926 µg/mL) | 3.8
CC(C)C[C@@H]1NC(=O)[C@H](Cc2ccccc2)N(C)C(=O)[C@H]2CCCN2C(=O)[C@H](CC(C)C)NC(=O)[C@H](C)N(C)C(=O)[C@H](CC(C)C)NC(=O)[C@H](Cc2ccccc2)N(C)C(=O)[C@H]2CCCN2C(=O)[C@H](CC(C)C)NC(=O)[C@H]([C@@H](C)O)N(C)C1=O | 5 | 4 (≈ 4.68 µg/mL) | 5.7
CC(C)C[C@@H]1NC(=O)[C@H](Cc2ccccc2)N(C)C(=O)[C@H]2CCCN2C(=O)[C@H](CC(C)C)NC(=O)[C@H](C)N(C)C(=O)[C@H](CC(C)C)NC(=O)[C@H](Cc2ccccc2)N(C)C(=O)[C@H]2CCCN2C(=O)[C@H]([C@@H](C)O)NC(=O)[C@H](C)N(C)C1=O | 3.6 | 20 (≈ 22.5 µg/mL) | 5.1
CC(C)C[C@@H]1NC(=O)[C@@H]2CCCN2C(=O)[C@H]2CCCN2C(=O)[C@H](CC(C)C)NC(=O)[C@H](C)N(C)C(=O)[C@H](CC(C)C)NC(=O)[C@@H]2CCCN2C(=O)[C@H]2CCCN2C(=O)[C@H](CC(C)C)NC(=O)[C@H](C)N(C)C1=O | 1.6 | 220 (≈ 222 µg/mL) | 4.3
CC(C)C[C@@H]1NC(=O)[C@H]([C@@H](C)O)N(C)C(=O)[C@H]2CCCN2C(=O)[C@H](CC(C)C)NC(=O)[C@H]([C@@H](C)O)N(C)C(=O)[C@H](CC(C)C)NC(=O)[C@H]([C@@H](C)O)N(C)C(=O)[C@H]2CCCN2C(=O)[C@H](CC(C)C)NC(=O)[C@H]([C@@H](C)O)N(C)C1=O | -0.8 | > 1000 | –
CC(C)C[C@@H]1NC(=O)[C@H](C)N(C)C(=O)[C@H]2CCCN2C(=O)[C@H](CC(C)C)NC(=O)[C@H](C)N(C)C(=O)[C@H](CC(C)C)NC(=O)[C@H](C)N(C)C(=O)[C@@H]2C[C@@H](O)CN2C(=O)[C@H](CC(C)C)NC(=O)[C@H](C)N(C)C1=O | 0.2 | 910 (≈ 913 µg/mL) | 4.1
CC(C)C[C@@H]1NC(=O)[C@H](C(C)C)N(C)C(=O)[C@H]2CCCN2C(=O)[C@H](CC(C)C)NC(=O)[C@@H](C)N(C)C(=O)[C@H](CC(C)C)NC(=O)[C@H](C(C)C)N(C)C(=O)[C@H](C)N(C)C(=O)[C@H](CC(C)C)NC(=O)[C@@H](C)N(C)C1=O | 4 | 220 (≈ 227 µg/mL) | 5.2
CC(C)C[C@@H]1NC(=O)[C@H](C)N(C)C(=O)[C@H](CC(C)C)NC(=O)[C@H](C(C)C)N(C)C(=O)[C@@H](C)N(C)C(=O)[C@H](CC(C)C)NC(=O)[C@H](C)N(C)C(=O)[C@H](CC(C)C)NC(=O)[C@H](C(C)C)N(C)C(=O)[C@@H](C)N(C)C1=O | 3.8 | 560 (≈ 571 µg/mL) | 5.2
CC(C)C[C@@H]1NC(=O)[C@H](C)N(C)C(=O)[C@H]2CCCN2C(=O)[C@H](CC(C)C)NC(=O)[C@H](C)N(C)C(=O)[C@H](CC(C)C)NC(=O)[C@H](C)N(C)C(=O)[C@H]2CCCN2C(=O)[C@H](CC(C)C)NC(=O)[C@H](C)N(C)C1=O | 2.5 | 794 (≈ 784 µg/mL) | 4.7
CC(C)C[C@@H]1NC(=O)[C@H](C)N(C)C(=O)[C@H]2CCCN2C(=O)[C@H](CC(C)C)NC(=O)[C@H]([C@@H](C)O)N(C)C(=O)[C@H](CC(C)C)NC(=O)[C@H](C)N(C)C(=O)[C@H]2CCCN2C(=O)[C@H](CC(C)C)NC(=O)[C@H]([C@@H](C)O)N(C)C1=O | 1 | 445 (≈ 466 µg/mL) | –
CC(C)C[C@@H]1NC(=O)[C@H](C)N(C)C(=O)[C@H](CC(C)C)NC(=O)[C@@H]2CCCN2C(=O)CN(C)C(=O)[C@H](CC(C)C)NC(=O)[C@H](C)N(C)C(=O)[C@H](CC(C)C)NC(=O)[C@@H]2CCCN2C(=O)CN(C)C1=O (cyclo(L[NMeA]L[Sar]PL[NMeA]L[Sar]P)) | 0.3 | > 1000 | –
CC(C)C[C@@H]1NC(=O)[C@H](C)N(C)C(=O)[C@H](CC(C)C)NC(=O)[C@H](C)N(C)C(=O)[C@@H](C)N(C)C(=O)[C@H](CC(C)C)NC(=O)[C@H](C)N(C)C(=O)[C@H](CC(C)C)NC(=O)[C@H](C)N(C)C(=O)[C@@H](C)N(C)C1=O (cyclo(L[NMeA]L[dNMeA][NMeA]L[NMeA]L[dNMeA][NMeA])) | 2.7 | 477 (≈ 459 µg/mL) | 4.6
CC(C)C[C@@H]1NC(=O)[C@H](C)N(C)C(=O)[C@H](CC(C)C)NC(=O)[C@H](Cc2ccccc2)N(C)C(=O)[C@@H](C)N(C)C(=O)[C@H](CC(C)C)NC(=O)[C@H](C)N(C)C(=O)[C@H](CC(C)C)NC(=O)[C@H](Cc2ccccc2)N(C)C(=O)[C@@H](C)N(C)C1=O (cyclo(L[NMeA]L[dNMeA][NMeF]L[NMeA]L[dNMeA][NMeF])) | 5.1 | 4 (≈ 4.46 µg/mL) | –
CC(C)C[C@@H]1NC(=O)[C@H](Cc2ccccc2)N(C)C(=O)[C@H]2CCCN2C(=O)[C@H](CC(C)C)NC(=O)[C@H](C)N(C)C(=O)[C@H](CC(C)C)NC(=O)[C@H](Cc2ccccc2)N(C)C(=O)[C@H]2CCCN2C(=O)[C@H](CC(C)C)NC(=O)[C@H](C)N(C)C1=O (cyclo(L[NMeA]L[dP][NMeF]L[NMeA]L[dP][NMeF])) | > 3.5 | 4 (≈ 4.56 µg/mL) | > 5.7
